Clc1ncnc2nc[nH]c12
solubility (mole fraction)
Settings | 283.15 K | 288.15 K | 293.15 K | 298.15 K | 303.15 K | 308.15 K | 313.15 K | 318.15 K | 323.15 K | 328.15 K
in DMAc | 0.0175 | 0.0217 | 0.0267 | 0.0334 | 0.0411 | 0.0504 | 0.061 | 0.074 | 0.0893 | 0.107
in DMF | 0.0555 | 0.0645 | 0.075 | 0.0871 | 0.0995 | 0.114 | 0.129 | 0.147 | 0.165 | 0.186
in ethanol | 0.0087 | 0.0103 | 0.0122 | 0.0144 | 0.0168 | 0.0195 | 0.0226 | 0.026 | 0.0296 | 0.0338
in methanol | 0.0112 | 0.0132 | 0.0153 | 0.0178 | 0.0204 | 0.0234 | 0.0268 | 0.0304 | 0.0345 | 0.0389
in water | 0.00051 | 0.000555 | 0.000601 | 0.000658 | 0.000709 | 0.000761 | 0.000815 | 0.000873 | 0.000935 | 0.000994

Source: BigSolDB 2.1
